PMC4448990 (Pharmacology Research & Perspectives, 2015)

Experiments:
[1] = molecular target: human Nav1.3 sodium channels (Homo sapiens, UniProt Q9NY46); test: whole-cell patch clamp, Nav1.3 in CHO-K1 cells; assay type: cell-based; details: 250 μmol/L
Oxidase, MAO-B, central = test: in vitro selectivity profile; assay type: biochemical; details: eslicarbazepine 400 μmol/L
Dopamine transporter (h) = Dopamine transporter (h) (Homo sapiens, UniProt Q01959); test: in vitro selectivity profile; assay type: binding
Kinase, protein, PKA (h) = Kinase, protein, PKA (h) (Homo sapiens, UniProt P17612); test: in vitro selectivity profile; assay type: biochemical
[2] = system: Serotonin, 5HT1, nonselective; test: in vitro selectivity profile; assay type: binding; details: eslicarbazepine 400 μmol/L
[3] = system: Nicotinic, neuronal [a-BnTx insensitive] (h); test: in vitro selectivity profile; assay type: binding, human; details: eslicarbazepine 400 μmol/L
[4] = molecular target: Adenosine transporter (h) (Homo sapiens, UniProt Q99808); test: in vitro selectivity profile; assay type: binding
Neurotensin (h) = Neurotensin (h) (Homo sapiens, UniProt P30989); test: in vitro selectivity profile; assay type: binding
[5] = system: Glutamate, NMDA, glycine (strychnine-insensitive); test: in vitro selectivity profile; assay type: binding; details: eslicarbazepine 400 μmol/L
Glutamate, mGluR5 = test: in vitro selectivity profile; assay type: binding; details: eslicarbazepine 400 μmol/L
[6] = system: Inositol triphosphate, IP3; test: in vitro selectivity profile; assay type: binding; details: eslicarbazepine 400 μmol/L
Serotonin, 5HT1B = test: in vitro selectivity profile; assay type: binding; details: eslicarbazepine 400 μmol/L
Glutamate, kainate site = test: in vitro selectivity profile; assay type: binding; details: eslicarbazepine 400 μmol/L
Neurokinin, NK1 = test: in vitro selectivity profile; assay type: binding; details: eslicarbazepine 400 μmol/L
Opioid, Mu (h) = Opioid, Mu (h) (Homo sapiens, UniProt P35372); test: in vitro selectivity profile; assay type: binding
[7] = molecular target: Kinase, protein, PKCz (h) (Homo sapiens, UniProt Q05513); test: in vitro selectivity profile; assay type: biochemical
[8] = system: sodium channels endogenously expressed in N1E-115 mouse neuroblastoma cells; details: 250 μmol/L; ref Hebeisen et al. [2014]; cited from earlier work
Sigma 1 = test: in vitro selectivity profile; assay type: binding; details: eslicarbazepine 400 μmol/L
[9] = molecular target: Kinase, protein, ROCK2 (h) (Homo sapiens, UniProt O75116); test: in vitro selectivity profile; assay type: biochemical
[10] = molecular target: Anhydrase, carbonic, isozyme I (h) (Homo sapiens, UniProt P00915); test: in vitro selectivity profile; assay type: biochemical
Serotonin, 5HT1D (h) = Serotonin, 5HT1D (h) (Homo sapiens, UniProt P28221); test: in vitro selectivity profile; assay type: binding
P-glycoprotein = details: ref Fortuna et al. [2012]; cited from earlier work
[11] = molecular target: Kinase, protein, GSK3b (h) (Homo sapiens, UniProt P49841); test: in vitro selectivity profile; assay type: biochemical
[12] = molecular target: Protease, caspase, CASP-1 (h) (Homo sapiens, UniProt P29466); test: in vitro selectivity profile; assay type: biochemical
Histamine, H1 = test: in vitro selectivity profile; assay type: binding; details: eslicarbazepine 400 μmol/L
Adenosine, A1 (h) = Adenosine, A1 (h) (Homo sapiens, UniProt P30542); test: in vitro selectivity profile; assay type: binding
Dopamine, D4.4 (h) = Dopamine, D4.4 (h) (Homo sapiens, UniProt P21917); test: in vitro selectivity profile; assay type: binding
hCav2.1 calcium channels = hCav2.1 calcium channels (Homo sapiens, UniProt O00555); test: whole-cell patch clamp, hCav2.1 in CHO cells; assay type: cell-based; details: IC50, hCav2.1 calcium peak currents, 0.3–1000 μmol/L, holding potential −80 mV
[13] = molecular target: Kinase, protein, CK1d (CSNK1D) (h) (Homo sapiens, UniProt P48730); test: in vitro selectivity profile; assay type: biochemical
Adenosine, A2 = test: in vitro selectivity profile; assay type: binding; details: eslicarbazepine 400 μmol/L
[14] = molecular target: Anhydrase, carbonic, isozyme II (h) (Homo sapiens, UniProt P00918); test: in vitro selectivity profile; assay type: biochemical
Dopamine, D1 (h) = Dopamine, D1 (h) (Homo sapiens, UniProt P21728); test: in vitro selectivity profile; assay type: binding
Adrenergic, alpha2A (h) = Adrenergic, alpha2A (h) (Homo sapiens, UniProt P08913); test: in vitro selectivity profile; assay type: binding
[15] = system: Glutamate, NMDA agonist site; test: in vitro selectivity profile; assay type: binding; details: eslicarbazepine 400 μmol/L
Purinergic, P2Y = test: in vitro selectivity profile; assay type: binding; details: eslicarbazepine 400 μmol/L
[16] = system: Decarboxylase, glutamic acid; test: in vitro selectivity profile; assay type: biochemical; details: eslicarbazepine 400 μmol/L
[17] = molecular target: Kinase, protein, MAPK3 (ERK1, P44MAPK) (h) (Homo sapiens, UniProt P27361); test: in vitro selectivity profile; assay type: biochemical
human GRIA1 receptor = human GRIA1 receptor (Homo sapiens, UniProt P42261); test: AMPA-receptor-mediated currents in CHO cells; assay type: cell-based; details: CHO cells, human GRIA1
[18] = molecular target: human α1β2γ2 GABAA receptors (Homo sapiens, UniProt P14867+P18507+P47870); test: submaximal GABA currents in Ltk cells; assay type: cell-based
[19] = system: Glutamate, NMDA, phencyclidine site; test: in vitro selectivity profile; assay type: binding; details: eslicarbazepine 400 μmol/L
Serotonin, 5HT2C = test: in vitro selectivity profile; assay type: binding; details: eslicarbazepine 400 μmol/L
Glutamate, MK-801 site = test: in vitro selectivity profile; assay type: binding; details: eslicarbazepine 400 μmol/L

human Nav1.3 sodium channels, sequence (Q9NY46 whole entry): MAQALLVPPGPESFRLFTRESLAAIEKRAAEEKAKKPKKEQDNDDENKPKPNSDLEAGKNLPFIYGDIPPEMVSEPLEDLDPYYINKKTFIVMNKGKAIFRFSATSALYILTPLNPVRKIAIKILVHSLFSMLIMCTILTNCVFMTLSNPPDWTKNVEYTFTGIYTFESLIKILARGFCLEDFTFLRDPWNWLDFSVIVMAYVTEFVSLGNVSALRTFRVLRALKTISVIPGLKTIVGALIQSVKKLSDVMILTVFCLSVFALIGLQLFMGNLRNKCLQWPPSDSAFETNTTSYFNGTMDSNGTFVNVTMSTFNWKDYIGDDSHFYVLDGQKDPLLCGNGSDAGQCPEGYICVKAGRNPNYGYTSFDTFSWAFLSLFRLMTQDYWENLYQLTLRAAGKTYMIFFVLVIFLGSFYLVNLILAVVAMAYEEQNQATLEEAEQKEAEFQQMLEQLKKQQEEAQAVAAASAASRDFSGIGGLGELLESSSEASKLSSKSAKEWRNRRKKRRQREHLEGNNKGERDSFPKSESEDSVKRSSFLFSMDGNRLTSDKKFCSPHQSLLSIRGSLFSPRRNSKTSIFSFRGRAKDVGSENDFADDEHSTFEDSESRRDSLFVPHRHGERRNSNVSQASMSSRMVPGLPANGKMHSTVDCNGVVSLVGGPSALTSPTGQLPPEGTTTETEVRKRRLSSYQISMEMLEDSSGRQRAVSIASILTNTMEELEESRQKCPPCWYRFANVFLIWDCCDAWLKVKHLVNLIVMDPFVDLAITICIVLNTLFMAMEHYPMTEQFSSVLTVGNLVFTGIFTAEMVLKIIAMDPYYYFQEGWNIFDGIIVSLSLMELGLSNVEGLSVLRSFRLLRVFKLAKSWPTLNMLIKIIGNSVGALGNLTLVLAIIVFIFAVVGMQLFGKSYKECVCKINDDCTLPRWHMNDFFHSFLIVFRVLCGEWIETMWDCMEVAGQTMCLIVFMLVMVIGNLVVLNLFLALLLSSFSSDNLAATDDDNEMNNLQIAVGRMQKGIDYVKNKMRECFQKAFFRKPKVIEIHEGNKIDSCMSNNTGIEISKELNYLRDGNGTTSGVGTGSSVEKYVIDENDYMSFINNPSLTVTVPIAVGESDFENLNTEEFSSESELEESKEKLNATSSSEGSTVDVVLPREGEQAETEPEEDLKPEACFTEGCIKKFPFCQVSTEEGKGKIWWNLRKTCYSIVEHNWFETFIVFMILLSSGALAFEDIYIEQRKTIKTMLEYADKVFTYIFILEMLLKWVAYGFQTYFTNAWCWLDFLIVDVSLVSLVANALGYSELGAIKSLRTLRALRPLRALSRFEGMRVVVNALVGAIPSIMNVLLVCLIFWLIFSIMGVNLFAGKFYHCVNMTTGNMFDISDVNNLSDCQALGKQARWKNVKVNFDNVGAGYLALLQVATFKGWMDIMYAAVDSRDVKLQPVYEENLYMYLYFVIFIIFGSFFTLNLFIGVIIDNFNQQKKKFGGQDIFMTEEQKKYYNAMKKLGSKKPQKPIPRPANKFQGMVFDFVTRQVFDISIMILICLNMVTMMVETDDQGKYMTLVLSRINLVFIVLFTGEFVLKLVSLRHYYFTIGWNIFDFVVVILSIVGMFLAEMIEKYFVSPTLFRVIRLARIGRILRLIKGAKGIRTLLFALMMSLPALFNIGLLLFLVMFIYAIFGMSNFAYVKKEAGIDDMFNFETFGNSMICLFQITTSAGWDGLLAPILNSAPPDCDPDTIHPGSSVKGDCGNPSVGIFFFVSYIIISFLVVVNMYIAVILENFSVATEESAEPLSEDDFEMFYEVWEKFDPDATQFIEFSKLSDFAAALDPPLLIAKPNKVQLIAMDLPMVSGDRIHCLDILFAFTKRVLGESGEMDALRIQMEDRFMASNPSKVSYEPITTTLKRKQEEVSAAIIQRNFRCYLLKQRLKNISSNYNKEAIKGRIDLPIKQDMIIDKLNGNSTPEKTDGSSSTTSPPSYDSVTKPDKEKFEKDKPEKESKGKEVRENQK
human α1β2γ2 GABAA receptors, sequence (P14867 28-456): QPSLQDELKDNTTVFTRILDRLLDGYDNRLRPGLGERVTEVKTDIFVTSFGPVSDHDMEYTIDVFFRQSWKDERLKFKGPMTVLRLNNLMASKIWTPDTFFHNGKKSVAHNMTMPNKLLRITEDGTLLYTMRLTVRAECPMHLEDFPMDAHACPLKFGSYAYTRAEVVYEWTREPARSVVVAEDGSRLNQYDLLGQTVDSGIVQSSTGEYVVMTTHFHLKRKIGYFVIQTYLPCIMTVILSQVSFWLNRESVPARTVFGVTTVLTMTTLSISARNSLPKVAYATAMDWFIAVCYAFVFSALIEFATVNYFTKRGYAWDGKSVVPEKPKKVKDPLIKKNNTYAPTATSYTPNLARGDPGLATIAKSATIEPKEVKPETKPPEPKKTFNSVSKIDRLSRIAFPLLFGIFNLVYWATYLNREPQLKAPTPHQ
human α1β2γ2 GABAA receptors, sequence (P47870 25-512 limits assumed): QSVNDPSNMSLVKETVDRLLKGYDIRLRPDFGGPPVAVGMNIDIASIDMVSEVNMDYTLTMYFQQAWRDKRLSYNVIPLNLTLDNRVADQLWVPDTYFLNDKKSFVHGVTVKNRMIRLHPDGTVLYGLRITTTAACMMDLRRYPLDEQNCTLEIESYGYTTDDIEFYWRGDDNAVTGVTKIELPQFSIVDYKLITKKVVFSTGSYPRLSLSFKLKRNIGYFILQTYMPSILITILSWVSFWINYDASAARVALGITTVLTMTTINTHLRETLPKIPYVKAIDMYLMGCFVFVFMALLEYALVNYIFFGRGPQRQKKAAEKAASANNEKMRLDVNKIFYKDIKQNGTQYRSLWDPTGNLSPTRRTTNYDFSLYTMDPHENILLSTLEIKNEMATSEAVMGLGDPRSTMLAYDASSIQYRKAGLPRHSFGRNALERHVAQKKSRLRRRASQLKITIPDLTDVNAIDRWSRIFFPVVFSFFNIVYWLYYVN
human α1β2γ2 GABAA receptors, sequence (P18507 40-475): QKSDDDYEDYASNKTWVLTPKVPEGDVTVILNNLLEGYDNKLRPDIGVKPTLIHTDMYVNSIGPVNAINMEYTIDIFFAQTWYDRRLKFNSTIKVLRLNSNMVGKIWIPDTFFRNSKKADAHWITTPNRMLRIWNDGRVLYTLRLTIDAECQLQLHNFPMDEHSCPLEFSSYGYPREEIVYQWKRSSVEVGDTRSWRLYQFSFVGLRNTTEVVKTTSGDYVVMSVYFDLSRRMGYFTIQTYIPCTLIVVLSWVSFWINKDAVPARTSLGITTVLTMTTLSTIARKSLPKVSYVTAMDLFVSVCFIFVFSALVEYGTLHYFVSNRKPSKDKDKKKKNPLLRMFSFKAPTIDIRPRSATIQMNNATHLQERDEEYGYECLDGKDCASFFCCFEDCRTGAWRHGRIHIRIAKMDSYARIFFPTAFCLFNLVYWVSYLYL
Adenosine, A1 (h), sequence (P30542 whole entry): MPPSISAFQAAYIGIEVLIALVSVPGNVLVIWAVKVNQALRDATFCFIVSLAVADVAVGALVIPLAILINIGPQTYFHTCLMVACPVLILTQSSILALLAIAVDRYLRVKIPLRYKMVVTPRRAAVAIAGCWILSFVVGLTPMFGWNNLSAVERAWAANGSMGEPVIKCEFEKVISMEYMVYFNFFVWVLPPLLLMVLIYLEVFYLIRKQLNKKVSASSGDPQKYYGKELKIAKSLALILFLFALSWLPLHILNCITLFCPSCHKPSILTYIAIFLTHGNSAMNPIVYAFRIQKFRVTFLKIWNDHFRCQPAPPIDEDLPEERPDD
Kinase, protein, GSK3b (h), sequence (P49841 whole entry): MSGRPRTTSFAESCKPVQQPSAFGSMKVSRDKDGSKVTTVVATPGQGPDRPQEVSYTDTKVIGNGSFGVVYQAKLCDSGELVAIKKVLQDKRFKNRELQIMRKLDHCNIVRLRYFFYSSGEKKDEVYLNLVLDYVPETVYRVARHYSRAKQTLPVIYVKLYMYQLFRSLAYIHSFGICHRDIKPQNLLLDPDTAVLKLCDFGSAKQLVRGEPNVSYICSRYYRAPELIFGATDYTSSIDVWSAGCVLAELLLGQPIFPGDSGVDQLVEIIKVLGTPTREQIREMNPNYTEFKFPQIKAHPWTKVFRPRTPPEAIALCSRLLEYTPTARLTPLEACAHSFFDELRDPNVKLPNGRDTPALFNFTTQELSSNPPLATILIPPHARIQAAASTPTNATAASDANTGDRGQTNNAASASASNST
Serotonin, 5HT1D (h), sequence (P28221 whole entry): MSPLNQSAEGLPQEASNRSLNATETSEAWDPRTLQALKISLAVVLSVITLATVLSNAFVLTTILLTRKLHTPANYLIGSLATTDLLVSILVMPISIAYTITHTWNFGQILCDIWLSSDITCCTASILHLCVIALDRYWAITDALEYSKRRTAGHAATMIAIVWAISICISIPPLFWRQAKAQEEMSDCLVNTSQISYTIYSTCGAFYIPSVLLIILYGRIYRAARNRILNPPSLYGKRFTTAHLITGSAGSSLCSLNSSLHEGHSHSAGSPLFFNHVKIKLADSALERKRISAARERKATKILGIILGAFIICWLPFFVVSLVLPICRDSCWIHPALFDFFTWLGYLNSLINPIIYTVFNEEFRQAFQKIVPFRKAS
Dopamine, D1 (h), sequence (P21728 whole entry): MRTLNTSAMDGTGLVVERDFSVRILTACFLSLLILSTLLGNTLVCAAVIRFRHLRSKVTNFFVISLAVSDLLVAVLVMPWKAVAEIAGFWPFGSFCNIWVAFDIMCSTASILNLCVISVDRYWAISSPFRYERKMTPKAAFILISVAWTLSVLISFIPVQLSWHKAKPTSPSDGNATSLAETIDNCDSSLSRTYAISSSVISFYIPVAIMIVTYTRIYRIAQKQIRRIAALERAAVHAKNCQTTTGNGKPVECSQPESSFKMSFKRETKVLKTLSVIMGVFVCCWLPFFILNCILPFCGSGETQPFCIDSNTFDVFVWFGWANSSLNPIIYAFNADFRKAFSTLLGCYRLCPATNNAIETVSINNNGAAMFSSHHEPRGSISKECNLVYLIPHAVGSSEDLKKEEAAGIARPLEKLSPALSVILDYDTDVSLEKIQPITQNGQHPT

## NC(=O)N1c2ccccc2C[C@H](O)c2ccccc21 [eslicarbazepine]
[1]; mean ± SEM, n = 3–6
  Fast inactivation V0.5: −40.68 ± 3.10 mV
  Slow inactivation V0.5: −26.61 ± 2.74 mV
[1]; control 20.29 sec
  time constant for entering the slow inactivated state: 14.02 s
Oxidase, MAO-B, central
  % inhibition: 0.95%
Dopamine transporter (h)
  inhibition at 400 µM: 2.85%
Kinase, protein, PKA (h)
  inhibition at 400 µM: 3.67%
[2]
  % inhibition: 11.43%
[3]
  % inhibition: 23.46%
[4]
  inhibition at 400 µM: 10.1%
Neurotensin (h)
  inhibition at 400 µM: 4.94%
[5]
  % inhibition: 13.21%
Glutamate, mGluR5
  % inhibition: 14.42%
[6]
  % inhibition: 0.45%
Serotonin, 5HT1B
  % inhibition: 2.1%
Glutamate, kainate site
  % inhibition: 1.56%
Neurokinin, NK1
  % inhibition: 12.58%
Opioid, Mu (h)
  inhibition at 400 µM: 0%
[7]
  inhibition at 400 µM: 1.48%
[8]
  recovery of fast inactivated channels: recovered similar to control conditions
Sigma 1
  % inhibition: 28.43%
[9]
  inhibition at 400 µM: 8.54%
[10]
  inhibition at 400 µM: 27.7%
Serotonin, 5HT1D (h)
  inhibition at 400 µM: 16.4%
P-glycoprotein
  intestinal transport M–S versus S–M and sensitivity to verapamil: of the same magnitude and insensitive to the P-glycoprotein inhibitor verapamil
[11]
  inhibition at 400 µM: 4.32%
[12]
  inhibition at 400 µM: 0%
Histamine, H1
  % inhibition: 23.23%
Adenosine, A1 (h)
  inhibition at 400 µM: 32.3%
Dopamine, D4.4 (h)
  inhibition at 400 µM: 0%
hCav2.1 calcium channels
  IC50: 7.84 mM
[13]
  inhibition at 400 µM: 5.18%
Adenosine, A2
  % inhibition: 0.0%
[14]
  inhibition at 400 µM: 5.93%
Dopamine, D1 (h)
  inhibition at 400 µM: 6.85%
Adrenergic, alpha2A (h)
  inhibition at 400 µM: 15.6%
[15]
  % inhibition: 0.0%
Purinergic, P2Y
  % inhibition: 0.0%
[16]
  % inhibition: 0.0%
[17]
  inhibition at 400 µM: 2.05%
Human GRIA1 receptor
  IC50, AMPA currents: neither eslicarbazepine nor CBZ significantly changed AMPA currents
[18]; 50 μmol/L
  GABA inward current stimulation, α1β2γ2, Mean ± SEM: 103.3 ± 2.0
[18]; 100 μmol/L
  GABA inward current stimulation, α1β2γ2, Mean ± SEM: 95.9 ± 1.0
[18]; 250 μmol/L
  GABA inward current stimulation, α1β2γ2, Mean ± SEM: 97.8 ± 1.1
[18]; 500 μmol/L
  GABA inward current stimulation, α1β2γ2, Mean ± SEM: 99.4 ± 0.8
[18]; 50–500 μmol/L
  effect on submaximal α1β2γ2 GABA currents: did not significantly change submaximal GABA currents
[19]
  % inhibition: 0.0%
Serotonin, 5HT2C
  % inhibition: 3.67%
Glutamate, MK-801 site
  % inhibition: 15.45%
